Measurements taken from publication PMC7153038, “Pharmacologic inhibition of RGD‐binding integrins ameliorates fibrosis and improves function following kidney injury” (Physiological Reports, 2020).

Tests used:
integrin αvβ5 = integrin αvβ5 (Homo sapiens, UniProt P06756+P18084); assay: integrin αvβ5-mediated cell attachment to ligand; type: cell-based; settings: mean and SD, at least 3 independent assays; read-out: IC50, inhibition of αvβ5-mediated cell attachment
Method: (§1) The RGD peptidomimetic CWHM‐12 was synthesized as described in detail previously (Henderson et al., 2013). A close structural analog of this compound with improved oral bioavailability, CWHM‐680, was also synthesized at Saint Louis University. Potency for the compounds in blocking cell attachment mediated by integrins αvβ3, αvβ5, and αvβ6 was measured as previously described (Henderson et al., 2013). Potency for blocking cell attachment mediated by integrins αvβ1, αvβ8, and α8β1 was measured using modifications of this method which are briefly summarized as follows: To assess CWHM‐12 and CWHM‐680 effects on cellular αvβ1 function, we varied its concentration in an assay measuring binding of HEK‐293 cells, which naturally express this integrin (Nagarajan et al., 2007), to the surface of 96‐well plates coated with purified recombinant human TGFβ‐1 latency‐associated peptide (R&D Systems). To assess the effect on cellular αvβ8 function, we performed the assay with the same LAP ligand but with HEK‐293 cells which had been stably transfected to overexpress this integrin. To assess the effect on cellular α8β1 function, we performed the assay using HEK‐293 cells, which had been stably transfected to overexpress this integrin and used purified recombinant mouse nephronectin as the immobilized ligand (R&D Systems). […]

integrin α8β1 = target: T1, integrin α8β1 (Homo sapiens, UniProt P05556+P53708); assay: integrin α8β1-mediated attachment of transfected HEK-293 cells to mouse nephronectin; type: cell-based; settings: mean and SD, at least 3 independent assays; transfected HEK-293, nephronectin; read-out: IC50, inhibition of α8β1-mediated cell attachment
T1 construct: expressed in transfected cells
T1 sequence (P53708 39-906 limits assumed): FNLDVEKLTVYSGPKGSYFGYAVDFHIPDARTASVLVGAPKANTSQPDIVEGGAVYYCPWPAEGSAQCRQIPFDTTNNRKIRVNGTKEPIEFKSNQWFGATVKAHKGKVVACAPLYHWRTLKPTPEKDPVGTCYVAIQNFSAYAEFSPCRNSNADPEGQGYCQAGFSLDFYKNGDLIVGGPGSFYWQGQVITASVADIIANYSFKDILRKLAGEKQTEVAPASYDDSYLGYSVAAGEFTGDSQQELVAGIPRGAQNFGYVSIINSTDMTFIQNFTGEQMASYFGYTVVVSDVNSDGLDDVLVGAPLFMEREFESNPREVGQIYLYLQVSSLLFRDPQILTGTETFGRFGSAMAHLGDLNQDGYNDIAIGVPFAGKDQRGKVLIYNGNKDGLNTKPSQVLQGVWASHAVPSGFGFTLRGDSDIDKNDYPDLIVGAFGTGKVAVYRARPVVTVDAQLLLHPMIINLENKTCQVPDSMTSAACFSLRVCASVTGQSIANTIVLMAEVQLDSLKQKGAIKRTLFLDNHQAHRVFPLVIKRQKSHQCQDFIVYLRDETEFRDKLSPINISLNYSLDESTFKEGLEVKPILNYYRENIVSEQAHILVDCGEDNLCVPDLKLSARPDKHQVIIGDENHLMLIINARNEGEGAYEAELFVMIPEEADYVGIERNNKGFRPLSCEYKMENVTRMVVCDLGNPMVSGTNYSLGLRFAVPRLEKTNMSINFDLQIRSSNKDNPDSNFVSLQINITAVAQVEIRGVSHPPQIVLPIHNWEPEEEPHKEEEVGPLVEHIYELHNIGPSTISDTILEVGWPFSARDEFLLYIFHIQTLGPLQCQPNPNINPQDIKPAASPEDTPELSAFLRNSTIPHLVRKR
T1 sequence (P53708 907-1063 partner limits assumed): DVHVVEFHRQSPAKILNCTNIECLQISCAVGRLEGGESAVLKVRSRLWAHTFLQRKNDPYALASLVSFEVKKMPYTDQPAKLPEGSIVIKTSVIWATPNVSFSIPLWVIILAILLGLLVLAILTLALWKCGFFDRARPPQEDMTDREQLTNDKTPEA
T1 sequence (P05556 21-798): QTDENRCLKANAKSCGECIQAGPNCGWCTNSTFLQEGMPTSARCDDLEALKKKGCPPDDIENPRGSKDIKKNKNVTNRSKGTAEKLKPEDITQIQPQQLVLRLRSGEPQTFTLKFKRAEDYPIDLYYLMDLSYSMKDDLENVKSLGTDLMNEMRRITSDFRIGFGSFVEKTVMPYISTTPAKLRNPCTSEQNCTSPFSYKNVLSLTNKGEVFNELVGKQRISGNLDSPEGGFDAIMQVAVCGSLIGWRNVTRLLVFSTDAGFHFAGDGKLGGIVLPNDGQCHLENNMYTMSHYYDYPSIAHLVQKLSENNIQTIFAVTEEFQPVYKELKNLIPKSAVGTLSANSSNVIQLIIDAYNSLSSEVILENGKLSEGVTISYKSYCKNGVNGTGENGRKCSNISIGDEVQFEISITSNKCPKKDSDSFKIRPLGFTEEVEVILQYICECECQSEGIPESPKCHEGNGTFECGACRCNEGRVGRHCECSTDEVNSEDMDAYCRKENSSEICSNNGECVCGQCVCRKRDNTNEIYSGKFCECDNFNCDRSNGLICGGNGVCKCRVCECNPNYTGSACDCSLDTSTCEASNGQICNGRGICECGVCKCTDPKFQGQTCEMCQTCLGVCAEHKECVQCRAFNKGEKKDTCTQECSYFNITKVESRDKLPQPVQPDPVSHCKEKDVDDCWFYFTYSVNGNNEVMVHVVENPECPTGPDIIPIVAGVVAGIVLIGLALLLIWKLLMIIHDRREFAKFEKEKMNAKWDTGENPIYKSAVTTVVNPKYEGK
Method: as §1

[1] = test system: pro-fibrotic gene expression in kidney; assay: aristolochic acid kidney injury model, kidney qRT-PCR; type: in vivo, mouse; settings: AA-injured, 100 mg/kg/day s.c. minipump, day 27; vehicle 32-fold
Method: Alzet osmotic minipumps (Cupertino, CA) were implanted subcutaneously in 8‐ to 10‐week‐old wild‐type male ICR outbred mice (Envigo) one day prior to induction of kidney injury to deliver vehicle (DMSO/H2O 1:1) or CWHM‐12 at a dose of 100 mg/kg per day. A single 5 mg/kg dose of aristolochic acid I sodium salt (Sigma‐Aldrich, A9451) in PBS was administered intraperitoneally to induce kidney injury, and mice were monitored daily for 27 days thereafter. Control (uninjured) mice were injected with an equal volume of PBS. Blood was obtained by maxillary vein puncture on days 0, 5 (peak injury), and 28 (study endpoint). For testing CWHM‐680, oral gavage (100 mg/kg per day) was started one day prior to injection of aristolochic acid I sodium salt and continued once daily until the study endpoint. Blood was obtained at days 0, 7, and 23 (study endpoint). […] Serum creatinine was measured by liquid chromatography–mass spectrometry (LC–MS/MS) at the University of Alabama O’Brien Center Bioanalytical Core. CWHM‐12 and CWHM‐680 concentrations were measured in plasma samples by liquid chromatography–tandem mass spectrometry (LC/MS/MS) using compound spiked into control plasma as a standard. All experiments were performed under protocols approved by the Institutional Animal Care and Use Committee at St. Louis University. […]

[2] = plasma compound concentration by LC/MS/MS; type: in vivo, mouse; settings: 100 mg/kg per day s.c. by Alzet minipump
Method: Alzet osmotic minipumps (Cupertino, CA) were implanted subcutaneously in 8‐ to 10‐week‐old wild‐type male ICR outbred mice (Envigo) one day prior to induction of kidney injury to deliver vehicle (DMSO/H2O 1:1) or CWHM‐12 at a dose of 100 mg/kg per day. A single 5 mg/kg dose of aristolochic acid I sodium salt (Sigma‐Aldrich, A9451) in PBS was administered intraperitoneally to induce kidney injury, and mice were monitored daily for 27 days thereafter. Control (uninjured) mice were injected with an equal volume of PBS. Blood was obtained by maxillary vein puncture on days 0, 5 (peak injury), and 28 (study endpoint). For testing CWHM‐680, oral gavage (100 mg/kg per day) was started one day prior to injection of aristolochic acid I sodium salt and continued once daily until the study endpoint. Blood was obtained at days 0, 7, and 23 (study endpoint). […] Serum creatinine was measured by liquid chromatography–mass spectrometry (LC–MS/MS) at the University of Alabama O’Brien Center Bioanalytical Core. CWHM‐12 and CWHM‐680 concentrations were measured in plasma samples by liquid chromatography–tandem mass spectrometry (LC/MS/MS) using compound spiked into control plasma as a standard. All experiments were performed under protocols approved by the Institutional Animal Care and Use Committee at St. Louis University.

integrin αvβ5, sequence (P06756 31-889 limits assumed): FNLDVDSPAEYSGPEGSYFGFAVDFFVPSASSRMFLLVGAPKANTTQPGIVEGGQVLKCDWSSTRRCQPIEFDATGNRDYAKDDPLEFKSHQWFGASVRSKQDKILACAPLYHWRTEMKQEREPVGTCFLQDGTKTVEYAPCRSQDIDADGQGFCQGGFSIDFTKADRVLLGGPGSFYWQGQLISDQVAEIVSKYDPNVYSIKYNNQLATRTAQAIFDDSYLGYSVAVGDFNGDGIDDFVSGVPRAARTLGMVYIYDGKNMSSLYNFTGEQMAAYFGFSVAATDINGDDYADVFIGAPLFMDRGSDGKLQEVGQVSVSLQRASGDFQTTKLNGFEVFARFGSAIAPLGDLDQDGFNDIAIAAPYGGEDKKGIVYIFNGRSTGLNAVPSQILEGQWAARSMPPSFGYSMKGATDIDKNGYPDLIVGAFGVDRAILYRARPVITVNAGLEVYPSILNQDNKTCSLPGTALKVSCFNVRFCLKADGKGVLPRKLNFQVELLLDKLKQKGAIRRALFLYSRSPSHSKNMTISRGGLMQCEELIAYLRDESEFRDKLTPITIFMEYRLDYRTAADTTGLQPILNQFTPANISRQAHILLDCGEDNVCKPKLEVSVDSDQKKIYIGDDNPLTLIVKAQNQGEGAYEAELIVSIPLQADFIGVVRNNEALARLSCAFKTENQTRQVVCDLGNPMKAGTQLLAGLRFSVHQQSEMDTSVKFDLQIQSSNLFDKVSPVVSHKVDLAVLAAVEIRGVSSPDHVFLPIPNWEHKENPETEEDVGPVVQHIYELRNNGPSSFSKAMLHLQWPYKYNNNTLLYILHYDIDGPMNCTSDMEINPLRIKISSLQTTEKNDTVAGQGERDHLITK
integrin αvβ5, sequence (P06756 891-1048 partner limits assumed): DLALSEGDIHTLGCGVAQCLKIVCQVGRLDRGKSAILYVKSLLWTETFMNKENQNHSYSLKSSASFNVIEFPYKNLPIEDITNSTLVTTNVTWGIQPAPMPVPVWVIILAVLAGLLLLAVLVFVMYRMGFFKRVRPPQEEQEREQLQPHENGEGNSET
integrin αvβ5, sequence (P18084 24-799): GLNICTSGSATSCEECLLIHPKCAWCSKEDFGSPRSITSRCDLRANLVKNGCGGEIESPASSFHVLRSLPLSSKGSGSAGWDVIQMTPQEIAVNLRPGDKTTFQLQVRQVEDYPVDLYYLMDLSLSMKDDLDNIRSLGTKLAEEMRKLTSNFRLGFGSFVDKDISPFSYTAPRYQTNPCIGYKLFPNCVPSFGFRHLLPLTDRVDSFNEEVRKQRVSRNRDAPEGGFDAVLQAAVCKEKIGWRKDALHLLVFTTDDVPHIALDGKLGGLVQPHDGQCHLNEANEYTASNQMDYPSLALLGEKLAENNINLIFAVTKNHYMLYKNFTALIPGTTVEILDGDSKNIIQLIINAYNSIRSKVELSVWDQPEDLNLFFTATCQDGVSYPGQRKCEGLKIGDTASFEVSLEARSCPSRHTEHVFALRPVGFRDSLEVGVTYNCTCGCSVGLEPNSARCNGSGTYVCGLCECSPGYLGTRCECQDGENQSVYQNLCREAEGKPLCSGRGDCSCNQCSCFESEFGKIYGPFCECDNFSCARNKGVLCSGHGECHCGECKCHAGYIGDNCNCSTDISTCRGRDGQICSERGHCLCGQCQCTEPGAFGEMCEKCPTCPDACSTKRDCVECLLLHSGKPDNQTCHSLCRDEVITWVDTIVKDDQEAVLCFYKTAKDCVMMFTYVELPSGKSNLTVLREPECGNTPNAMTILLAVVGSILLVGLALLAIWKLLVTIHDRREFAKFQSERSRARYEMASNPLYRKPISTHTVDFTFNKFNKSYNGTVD

In the case of CC(C)(C)c1cc(Br)cc([C@H](CC(=O)O)NC(=O)CNC(=O)c2cc(O)cc(NC3=NCC(O)CN3)c2)c1 (stereo partly shown) [CWHM‐12], the IC50 (integrin αvβ5) is reported as 47 ± 26 nM, the IC50 (integrin α8β1) is reported as 35 ± 16 nM and the “Col1a1 mRNA expression increase by qRT-PCR compared with uninjured animals” value [1] is reported as 9 fold. The “mean steady plasma drug concentration” value [2] was “approximately 5 µg/ml”.
